The record followed here is PubChem BioAssay (NCI).

Test systems include HL-60(TB) leukemia; HOP-92 NSCLC; HS 578T breast; MDA-MB-435; NCI/ADR-RES ovarian; SK-MEL-2 melanoma; MDA-N; DLD-1 colon; DMS 114 small cell lung; HOP-18 NSCLC; KM20L2 colon; LXFL 529 NSCLC; M19-MEL melanoma; RXF-631 renal.
Holding throughout (assay): NCI anticancer screen, dose series, 48 h

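48-hour exposure; five concentrations; linearly interpolated endpoints. Here, GI50 denotes the concentration required for 50% inhibition of growth. TGI: total growth inhibition.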

For the compound `CC(C)C1OC(=O)/C=C/C=C/C=C/C=C/C=C/CC(O)C(C)C(O)CC(O)CC(O)CC(O)CC(O)CC(O)CC(O)/C=C/C1C` (stereo not drawn), the GI50 in the test on HL-60(TB) leukemia was 2130 nM. Further, the TGI with HOP-92 NSCLC, with HS 578T breast, in the test with MDA-MB-435, in the test on NCI/ADR-RES ovarian and in the test on SK-MEL-2 melanoma was greater than 100 µM each time.

As to `C/C(N=Nc1nc2ccccc2[nH]1)=C1/C=CC=CN1O`, the TGI in the test with HOP-92 NSCLC, in the test on HS 578T breast, in the test on MDA-MB-435, with MDA-N, in the test on NCI/ADR-RES ovarian and with SK-MEL-2 melanoma was greater than 100 µM each time.

Regarding `COC(OC)C1OC(CO)C(n2cc(F)c(=O)[nH]c2=O)C1O` (stereo not drawn), the TGI in the test with HL-60(TB) leukemia, in the test on HOP-92 NSCLC, in the test with HS 578T breast, with MDA-MB-435, in the test on MDA-N and in the test on NCI/ADR-RES ovarian was greater than 100 µM in each case. The TGI with SK-MEL-2 melanoma is greater than 100 µM.

Take `C1=CC(=[N+]2N=C(c3ccccc3)CC2c2ccccc2)C=CC1=C1SC(c2ccccc2)(c2ccccc2)c2ccccc21` (stereo not drawn): the TGI in the test on HL-60(TB) leukemia, with HOP-92 NSCLC, with HS 578T breast, in the test with MDA-MB-435, with MDA-N and with NCI/ADR-RES ovarian was greater than 100 µM in each case. This compound also had a TGI in the test with SK-MEL-2 melanoma greater than 100 µM.

For `COc1cc2c(cc1OCCCCCCCCN1C(=O)c3cccc4cccc(c34)C1=O)N=C[C@@H]1CCCN1C2=O`, the TGI was 52.3 µM in the test on HL-60(TB) leukemia; greater than 100 µM in the test with HS 578T breast; 51.7 µM in the test on MDA-MB-435; 19.4 µM in the test with NCI/ADR-RES ovarian; 74.6 µM in the test on SK-MEL-2 melanoma.

Turning to `COC(CN(C=O)[C@@H](c1ccc(Cl)cc1)c1cc2ccccc2o1)OC`, the TGI was found to be 46.3 µM with HL-60(TB) leukemia; 33.7 µM with HOP-92 NSCLC; 27.6 µM in the test on HS 578T breast; 35.5 µM in the test on MDA-MB-435; 31.6 µM in the test on MDA-N; 41.9 µM in the test on NCI/ADR-RES ovarian. Besides, in the test on SK-MEL-2 melanoma, the TGI was 31.9 µM.

Take `O=S(=O)(O)c1cc(N=[N+]([O-])c2cc(S(=O)(=O)O)c3ccccc3c2)cc2ccccc12`: the TGI in the test on HL-60(TB) leukemia was greater than 100 µM; in the test on HOP-92 NSCLC, greater than 100 µM; in the test on HS 578T breast it was greater than 100 µM; in the test on MDA-MB-435, greater than 100 µM; with MDA-N it was 41.7 µM; with NCI/ADR-RES ovarian, greater than 100 µM. For the same compound, the TGI with SK-MEL-2 melanoma amounted to 66.1 µM.

Turning to `O=C(O)C(O)C(O)C(O)C(=O)CO` (stereo not drawn), the TGI in the test with HL-60(TB) leukemia, in the test with HOP-92 NSCLC, in the test with HS 578T breast, in the test on MDA-MB-435, with MDA-N and in the test with NCI/ADR-RES ovarian was greater than 100 µM throughout. The compound further came in with a TGI in the test with SK-MEL-2 melanoma greater than 100 µM.

Regarding `CCCSc1ccc2[nH]c(N3C(=O)/C(=C/c4cc(OC)c(OC)c(OC)c4)N=C3c3ccccc3)cc2c1`, the TGI is 17.3 µM with HL-60(TB) leukemia; 36.6 µM in the test on HOP-92 NSCLC; greater than 37.5 µM in the test with HS 578T breast; 16 µM in the test with MDA-MB-435; 12.3 µM in the test on MDA-N; greater than 34.2 µM with NCI/ADR-RES ovarian. In the test with SK-MEL-2 melanoma, this compound came in with a TGI greater than 37.5 µM.

Regarding `O=C1/C(=C\c2ccc(F)cc2)CCOc2c1ccc1ccccc21`, the TGI was greater than 72.4 µM in the test with HL-60(TB) leukemia; 71.5 µM in the test with HOP-92 NSCLC; greater than 84.9 µM in the test with HS 578T breast; 74.3 µM in the test on MDA-MB-435; 45.9 µM with NCI/ADR-RES ovarian; greater than 100 µM with SK-MEL-2 melanoma.

For `COc1cc2c(cc1C)NC(=O)/C2=C/c1c(Cl)n(-c2ccccc2)c2ccccc12`, the TGI with HL-60(TB) leukemia is 22 µM; with HOP-92 NSCLC, greater than 100 µM; with HS 578T breast, greater than 100 µM; with MDA-MB-435, 45.5 µM; in the test on MDA-N it was 37 µM; in the test on NCI/ADR-RES ovarian, 67.7 µM. In the test on SK-MEL-2 melanoma, this compound came in with a TGI of 36 µM.

For `CCCN1C(=O)CSC1=Nc1ccc2cc3ccc(N=C4SCC(=O)N4CCC)cc3nc2c1`, the GI50 in the test on HL-60(TB) leukemia was greater than 100000 nM; in the test on HOP-92 NSCLC it was 39.1 nM; in the test with HS 578T breast, 35.8 µM; in the test with MDA-MB-435, greater than 100 µM; in the test with NCI/ADR-RES ovarian, 63.1 µM; in the test on SK-MEL-2 melanoma, greater than 100 µM. Besides, the TGI was greater than 100 µM in the test on HL-60(TB) leukemia; 0.334 µM in the test on HOP-92 NSCLC; greater than 100 µM in the test with HS 578T breast; greater than 100 µM with MDA-MB-435; greater than 100 µM in the test on NCI/ADR-RES ovarian; greater than 100 µM in the test with SK-MEL-2 melanoma.

With `CCOC(=O)C(=O)NCCCN1CCOCC1`, the TGI with DLD-1 colon, in the test with DMS 114 small cell lung, in the test on HL-60(TB) leukemia, in the test with HOP-18 NSCLC, in the test on HOP-92 NSCLC and in the test on KM20L2 colon was greater than 100 µM throughout. The TGI in the test on LXFL 529 NSCLC, in the test with M19-MEL melanoma, in the test with RXF-631 renal and with SK-MEL-2 melanoma was greater than 100 µM in each case.

For `O=C1CC2(CCC(O)(c3cccs3)C(C(=O)c3cccs3)C2)C(=O)c2ccccc2N1` (stereo not drawn), the TGI with HL-60(TB) leukemia, in the test with HOP-92 NSCLC, with HS 578T breast, in the test on MDA-MB-435, in the test with MDA-N and with NCI/ADR-RES ovarian was greater than 100 µM each time. This compound came in with a TGI with SK-MEL-2 melanoma greater than 100 µM.

For `Nc1ccc(-c2nc3cc(F)ccc3s2)cc1CO`, the TGI in the test with HL-60(TB) leukemia was greater than 100 µM; in the test with HOP-92 NSCLC, 43.5 µM; in the test with HS 578T breast, greater than 100 µM; in the test on MDA-MB-435 it was greater than 100 µM; with MDA-N, greater than 100 µM; in the test with NCI/ADR-RES ovarian, greater than 100 µM. Further, the TGI in the test with SK-MEL-2 melanoma is greater than 62.9 µM.
